Measured values taken from patent US11013249B2, “Compositions for controlled release of volatile compounds” (University of Guelph, priority 2016, dated 2021).
Converted amounts (≈) assume the structure as drawn. “And” between values parts separate entries of the source, which are not always exact repeats. Equal entries are not always repeated. Where two headings read alike, the source gives them in different places.

Experiments:
[1] = test system: P. Fluorescens; assay: Inhibitory effects of AITC, diacetyl and cinnamaldehyde vapour; assay type: cell-based, Pseudomonas fluorescens P33; conditions: 25° C.; for effective concentration against P. fluorescens: vapour in one-liter jar
Method: (§1) P. fluorescens was selected as a model spoilage bacteria, while mould and yeast were isolated from spoiled mung bean sprouts with bacteria excluded by cultivating in potato dextrose broth (PDB) (Sigma, Oakville, ON, Canada) at pH 5.6±0.2. Yeast and P. fluorescens stocks were cultivated in PDB and trypticase soy broth (TSB) (Bacto, BD, Sparks, USA), respectively, at 30° C. for 24 h and diluted with sterile saline solution (NaCl, 8.5 g/L water) to a concentration of 10^6 CFU/mL. An aliquot of 50 μL of the prepared yeast or bacteria suspension was spread on potato dextrose agar (PDA) (Difco, BD, Sparks, USA) or trypticase soy agar (TSA) (Bacto, BD, Sparks, USA), respectively, in 5 cm diameter petri dishes (Fisher Scientific, Ottawa, ON, Canada). Mycelium of mould was inoculated as one spot at the center of the PDA dishes. Two freshly inoculated petri dishes of same microorganism, with their lids removed, were placed in a one-liter glass jar. […] The growth of the microorganisms was monitored by the colony formation for 3 days.

[2] = test system: Yeast; assay: as above; assay type: cell-based, yeast isolated from mung bean sprouts; conditions: for Yeast day1, visual colony number / Yeast day2, visual colony number / Yeast day3, visual colony number / effective concentration against yeast: 25° C.; for MIC: read-out: minimum inhibition concentration (MIC); for effective concentration against yeast: vapour in one-liter jar
Method: as §1

[3] = test system: Mould; assay: as above; assay type: cell-based, mould isolated from mung bean sprouts; conditions: 25° C.; for concentration that inhibited the growth of mould for three days: vapour in one-liter jar
Method: as §1

[4] = Release of diacetyl and AITC vapours from PEG blends into jar headspace (automatic headspace sampling, GC); assay type: physicochemical; conditions: from 4:1 PEG400:PEG10K
Method: PEG400 and PEG10K were blended at 1:4, 2:3, 3:2 and 4:1 (w/w) ratios. All PEG blends (20±1 g) were heated to 90° C. in a 20 mL glass vial for 20 min to ensure the polymers were melted and thoroughly mixed with the aid of a magnetic stir bar. […] The vials were capped, kept in a 75° C. oven and continuously being stirred with the magnetic stir bar for 15 min. The molten mixtures were injected into a mould fabricated from glass (2 cm×1.5 cm×0.1 cm) and allowed to set. One face of the mould was lined with aluminum tape (adhesive side facing away from PEG), which acted as a baking material for the solidified PEG. Upon solidification, diacetyl/AITC impregnated PEG sheeting was formed.
With the aid of a controller (SRI Instruments Inc., Las Vegas, Nev., USA), the headspace air in the glass jar was sampled automatically by means of a vacuum pump and two stream selection valves (Model EMTCA-CE, VICI Valco Instruments Co. Inc., Houston, Texax, USA), and injected into a gas chromatograph equipped with flame ionization detector (GC 6890, Agilent Technologies Inc., Santa Clara, Calif., USA.). Both the detector and oven temperatures were set at 150° C. The flow rates of the carrier gas (N2), compressed air and hydrogen were 30 mL/min, 200 mL/min and 30 mL/min, respectively. Retention time and peak area were analyzed by using chromatographic software (Peak Simple 393-32 bit, SRI Instruments, Torrance, Calif., USA). After each sampling, an equal amount of dry air was injected back into the jar to maintain the interior pressure at one atmosphere.
Diacetyl or AITC release profiles were generated by plotting Mn versus time.
The release profiles of the antimicrobial compounds were fitted in a model which combines first order kinetics and zero order kinetics: C=Ce×(1−e^−kt)+αt (Eq. 3) where C is the compound concentration at time t; Ce is the equilibrium concentration for diffusion; k is the diffusion rate constant; α is the rate of zero order kinetics. Models are fitted to the data before reaching the equilibrium.

[5] = cited from earlier work; for vapor pressure (volatility): 20° C.
[6] = cited from earlier work

Structure (SMILES): C=CCN=C=S [AITC, Allyl isothiocyanate]
- P. Fluorescens day1, visual colony number ([1]; Amount 0.1 mg in one-liter jar): ++ (15-50)
- P. Fluorescens day2, visual colony number ([1]; Amount 0.1 mg in one-liter jar): ++ (15-50)
- P. Fluorescens day1, visual colony number ([1]; Amount 0.5 mg in one-liter jar): + (less than 15)
- P. Fluorescens day2, visual colony number ([1]; Amount 0.5 mg in one-liter jar): + (less than 15)
- effective concentration against P. fluorescens [1]: 1 mg/L
- Yeast day1, visual colony number ([2]; Amount 0.1 mg in one-liter jar): + (less than 15)
- Yeast day2, visual colony number ([2]; Amount 0.1 mg in one-liter jar): + (less than 15)
- Yeast day3, visual colony number ([2]; Amount 0.1 mg in one-liter jar): + (less than 15)
- MIC [2]: 0.5 µg/mL (≈ 5.04 µM)
- effective concentration against yeast [2]: 0.5 mg/L
- concentration that inhibited the growth of mould for three days [3]: 0.1 mg/L
- Ce ([4]; 0 μL water, 5° C.): 0.0212 mg/L
- k ([4]; 0 μL water, 5° C.): 0.0149 h⁻¹
- α ([4]; 0 μL water, 5° C.): 3.39e-06 h⁻¹
- Ce ([4]; 0 μL water, 25° C.): 0.0791 mg/L
- k ([4]; 0 μL water, 25° C.): 0.016 h⁻¹ and 0.01604 h⁻¹
- α ([4]; 0 μL water, 25° C.): 1.94e-05 h⁻¹
- maximum released after 42 h ([4]; 5° C.): 0.14 mg
- Ce ([4]; 10 μL water, 5° C.): 0.0245 mg/L
- k ([4]; 10 μL water, 5° C.): 0.01509 h⁻¹
- α ([4]; 10 μL water, 5° C.): 3.63e-06 h⁻¹
- Ce ([4]; 10 μL water, 25° C.): 0.1012 mg/L
- k ([4]; 10 μL water, 25° C.): 0.01169 h⁻¹
- α ([4]; 10 μL water, 25° C.): 1.76e-05 h⁻¹
- maximum released after 42 h ([4]; 25° C.): 0.47 mg
- maximum release within 42 h ([4]; 25° C., 10 μL water): 0.15 mg
- maximum release within 42 h ([4]; 25° C., 100 μL water): 0.18 mg
- maximum release within 42 h ([4]; 25° C., 1000 μL water): 0.48 mg
- maximum release within 42 h ([4]; 25° C., dry condition): 0.13 mg
- Ce ([4]; 100 μL water, 5° C.): 0.0353 mg/L
- k ([4]; 100 μL water, 5° C.): 0.01022 h⁻¹
- α ([4]; 100 μL water, 5° C.): 1.09e-05 h⁻¹
- Ce ([4]; 100 μL water, 25° C.): 0.1523 mg/L
- k ([4]; 100 μL water, 25° C.): 0.00896 h⁻¹
- α ([4]; 100 μL water, 25° C.): 1.25e-05 h⁻¹
- Ce ([4]; 1000 μL water, 5° C.): 0.0454 mg/L
- k ([4]; 1000 μL water, 5° C.): 0.00564 h⁻¹
- α ([4]; 1000 μL water, 5° C.): 3.75e-05 h⁻¹
- Ce ([4]; 1000 μL water, 25° C.): 0.1365 mg/L
- k ([4]; 1000 μL water, 25° C.): 0.009 h⁻¹ and 0.00945 h⁻¹
- time of reaching equilibrium of release ([4]; 1000 μL water, 25° C.): around 1300 min
- α ([4]; 1000 μL water, 25° C.): 0.00029 h⁻¹ and 0.000291 h⁻¹
- Saturated vapor pressure ([5]; 5° C.): ~140 Pa
- vapor pressure (volatility) [5]: 0.49 kPa
- Saturated vapor pressure ([5]; 45° C.): ~1500 Pa

Structure (SMILES): CC(=O)C(C)=O [Diacetyl, 2,3-butanedione]
- P. Fluorescens day1, visual colony number ([1]; Amount 1 mg in one-liter jar): + (less than 15)
- P. Fluorescens day2, visual colony number ([1]; Amount 1 mg in one-liter jar): + (less than 15)
- effective concentration against P. fluorescens [1]: 2 mg/L
- Yeast day1, visual colony number ([2]; Amount 1 mg in one-liter jar): + (less than 15)
- Yeast day2, visual colony number ([2]; Amount 1 mg in one-liter jar): + (less than 15)
- Yeast day3, visual colony number ([2]; Amount 1 mg in one-liter jar): + (less than 15)
- Yeast day1, visual colony number ([2]; Amount 2 mg in one-liter jar): + (less than 15)
- Yeast day2, visual colony number ([2]; Amount 2 mg in one-liter jar): + (less than 15)
- Yeast day3, visual colony number ([2]; Amount 2 mg in one-liter jar): + (less than 15)
- Yeast day2, visual colony number ([2]; Amount 3 mg in one-liter jar): + (less than 15)
- Yeast day3, visual colony number ([2]; Amount 3 mg in one-liter jar): + (less than 15)
- MIC ([2]; established on yeast, mould and P. fluorescens from Table 8): 4 µg/mL (≈ 46.5 µM)
- effective concentration against yeast [2]: 4 mg/L
- Mould day1, visual colony number ([3]; Amount 1 mg in one-liter jar): + (less than 15)
- Mould day2, visual colony number ([3]; Amount 1 mg in one-liter jar): + (less than 15)
- Mould day3, visual colony number ([3]; Amount 1 mg in one-liter jar): + (less than 15)
- concentration that inhibited the growth of mould for three days [3]: 2 mg/L
- Ce ([4]; 0 μL water, 5° C.): 0.631 mg/L
- k ([4]; 0 μL water, 5° C.): 0.00764 h⁻¹
- α ([4]; 0 μL water, 5° C.): 0.000149 h⁻¹
- Ce ([4]; 0 μL water, 25° C.): 1.965 mg/L
- k ([4]; 0 μL water, 25° C.): 0.00837 h⁻¹
- α ([4]; 0 μL water, 25° C.): 0.000258 h⁻¹
- maximum released after 42 h ([4]; 5° C.): 1.98 mg
- Ce ([4]; 10 μL water, 5° C.): 1.074 mg/L
- k ([4]; 10 μL water, 5° C.): 0.00484 h⁻¹
- α ([4]; 10 μL water, 5° C.): 0.000236 h⁻¹
- Ce ([4]; 10 μL water, 25° C.): 1.701 mg/L
- k ([4]; 10 μL water, 25° C.): 0.01425 h⁻¹
- α ([4]; 10 μL water, 25° C.): 0.00034 h⁻¹
- maximum released after 42 h ([4]; 25° C.): 2.85 mg
- Ce ([4]; 100 μL water, 5° C.): 1.418 mg/L
- k ([4]; 100 μL water, 5° C.): 0.00159 h⁻¹
- α ([4]; 100 μL water, 5° C.): 0.000253 h⁻¹
- Ce ([4]; 100 μL water, 25° C.): 1.901 mg/L
- k ([4]; 100 μL water, 25° C.): 0.01281 h⁻¹
- α ([4]; 100 μL water, 25° C.): 0.000272 h⁻¹
- Ce ([4]; 1000 μL water, 5° C.): 0.151 mg/L
- k ([4]; 1000 μL water, 5° C.): 0.01321 h⁻¹
- α ([4]; 1000 μL water, 5° C.): 0.000301 h⁻¹
- Ce ([4]; 1000 μL water, 25° C.): 2.156 mg/L
- k ([4]; 1000 μL water, 25° C.): 0.00728 h⁻¹
- α ([4]; 1000 μL water, 25° C.): 0.000279 h⁻¹
- Saturated vapor pressure ([5]; 5° C.): ~2400 Pa
- vapor pressure (volatility) [5]: 6.9 kPa
- Saturated vapor pressure ([5]; 45° C.): ~20100 Pa

Structure (SMILES): Cc1ccc(C(C)C)cc1O [carvacrol, 5-isopropyl-2-methylphenol]
- solubility in water [6]: low solubility in water
- vapor pressure ([5]; 22° C.): 0.0042 kPa
- vapor pressure ([5]; 25° C.): 0.0087 kPa
